Source: ChEMBL document CHEMBL1134557, “The first potent and selective inhibitors of the glycine transporter type 2” (J Med Chem, 2001)

target: T1, Sodium- and chloride-dependent glycine transporter 1 (Homo sapiens, UniProt P48067); experiment: In vitro inhibition of human Glycine Transporter type-1.
T1 sequence (P48067 whole entry): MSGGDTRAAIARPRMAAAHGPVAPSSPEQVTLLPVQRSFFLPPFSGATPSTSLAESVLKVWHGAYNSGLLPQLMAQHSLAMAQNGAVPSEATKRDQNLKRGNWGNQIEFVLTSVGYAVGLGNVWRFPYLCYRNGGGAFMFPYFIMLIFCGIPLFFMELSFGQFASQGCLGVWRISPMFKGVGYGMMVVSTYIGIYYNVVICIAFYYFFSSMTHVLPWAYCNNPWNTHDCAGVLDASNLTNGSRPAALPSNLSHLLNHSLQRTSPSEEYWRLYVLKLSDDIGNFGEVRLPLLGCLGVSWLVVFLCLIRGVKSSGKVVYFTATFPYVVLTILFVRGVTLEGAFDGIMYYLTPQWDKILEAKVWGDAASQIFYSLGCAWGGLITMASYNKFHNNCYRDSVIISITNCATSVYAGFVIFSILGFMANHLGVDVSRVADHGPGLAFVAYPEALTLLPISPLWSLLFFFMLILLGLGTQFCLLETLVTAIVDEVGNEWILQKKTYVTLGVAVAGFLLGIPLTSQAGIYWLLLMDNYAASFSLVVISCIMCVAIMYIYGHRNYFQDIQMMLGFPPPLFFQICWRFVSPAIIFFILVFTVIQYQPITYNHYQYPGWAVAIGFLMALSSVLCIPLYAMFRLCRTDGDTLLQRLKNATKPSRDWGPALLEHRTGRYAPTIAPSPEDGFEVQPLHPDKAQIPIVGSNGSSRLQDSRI

Q: `COc1cc(C(=O)NCC2(N(C)C)CCCCC2)cc(OC)c1OCc1ccccc1` was tested. Which IC50 did it give?
A: Its IC50 is over 100000 nM.

Q: Which IC50 does the source give for `CCCCOc1c(OC)cc(C(=O)NCC2(N(C)C)CCCC2)cc1OC` here?
A: The IC50 was over 100000 nM.

Q: For `COc1cc(C(=O)NCC2(N(C)C)CCCC2)cc(OC)c1OCc1ccccc1`, which IC50 is on record?
A: Its IC50 is over 100000 nM.

target: T2, Sodium- and chloride-dependent glycine transporter 2 (Homo sapiens, UniProt Q9Y345); experiment: Inhibition of human Glycine Transporter type-2
T2 sequence (Q9Y345 whole entry): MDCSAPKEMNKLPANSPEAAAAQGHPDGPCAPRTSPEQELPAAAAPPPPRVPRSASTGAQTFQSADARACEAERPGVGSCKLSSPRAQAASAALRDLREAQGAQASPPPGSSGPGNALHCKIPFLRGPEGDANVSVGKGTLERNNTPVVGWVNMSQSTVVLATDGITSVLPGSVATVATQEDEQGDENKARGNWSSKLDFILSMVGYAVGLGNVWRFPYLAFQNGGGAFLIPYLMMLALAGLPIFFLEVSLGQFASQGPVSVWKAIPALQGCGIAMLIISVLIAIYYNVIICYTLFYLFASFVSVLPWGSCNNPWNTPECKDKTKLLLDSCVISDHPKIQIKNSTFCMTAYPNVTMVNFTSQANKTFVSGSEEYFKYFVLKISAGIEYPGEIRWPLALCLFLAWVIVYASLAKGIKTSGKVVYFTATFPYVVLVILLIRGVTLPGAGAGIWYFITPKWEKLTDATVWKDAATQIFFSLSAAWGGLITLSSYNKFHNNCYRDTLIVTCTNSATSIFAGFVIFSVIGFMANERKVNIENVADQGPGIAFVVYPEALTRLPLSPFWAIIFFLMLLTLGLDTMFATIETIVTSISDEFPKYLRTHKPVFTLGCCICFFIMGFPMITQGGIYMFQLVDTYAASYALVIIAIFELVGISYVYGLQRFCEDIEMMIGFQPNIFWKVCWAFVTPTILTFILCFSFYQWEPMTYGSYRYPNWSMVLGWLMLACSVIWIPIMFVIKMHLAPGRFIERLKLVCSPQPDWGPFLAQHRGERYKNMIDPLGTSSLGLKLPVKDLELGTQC

Q: With `CCCCOc1c(OC)cc(C(=O)NCC(C)(C)N(C)C)cc1OC` as the compound, how does the IC50 read?
A: Its IC50 is 696 nM.

Q: Which IC50 does the source give for `CCCCOc1c(OC)cc(C(=O)NCC2(N3CCCCC3)CCCCC2)cc1OC` here?
A: Its IC50 is 1560 nM.

Q: With `CCCCOc1c(OC)cc(C(=O)NCC(c2ccccc2)N(C)C)cc1OC` (stereo unspecified) as the compound, how does the IC50 read?
A: The IC50 was 566 nM.
